# Read-outs that look alike come from different tables or passages of the source.
# How the values were obtained:
# Type in all cases: in vivo
# [1] = test system: Abutilon theophrasti (ABUTH); experiment: Pre-emergence herbicidal action against ABUTH; settings: Dosage column 320 g/ha (title prints 3200 g/ha); scored visually after about 3 weeks; 100% = plants have died
# Summary of the method: (§1)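 Read-out is visual percent damage relative to untreated pots, with 100% meaning dead plants and 0% meaning no difference, assessed roughly three weeks after treatment. Compounds were applied pre-emergence to the covering soil at up to 320 g/ha.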
# [2] = test system: Alopecurus myosuroides (ALOMY); experiment: Pre-emergence herbicidal action against ALOMY; settings: scored visually after about 3 weeks, 100% = plants have died
# Summary of the method: as §1
# [3] = test system: Amaranthus retroflexus (AMARE); experiment: Pre-emergence herbicidal action against AMARE; settings: visual scoring after about 3 weeks vs untreated controls
# Summary of the method: as §1
# [4] = test system: Avena fatua (AVEFA); experiment: Pre-emergence herbicidal action against AVEFA; settings: 320 g/ha, visual scoring after about 3 weeks vs untreated controls
# Summary of the method: as §1
# [5] = test system: Echinochloa crus-galli (ECHCG); experiment: Pre-emergence herbicidal action against ECHCG
# Summary of the method: as §1
# [6] = test system: Lolium rigidum (LOLRI); experiment: Pre-emergence herbicidal action against LOLRI
# Summary of the method: as §1
# [7] = test system: Matricaria inodora (MATIN); experiment: Pre-emergence herbicidal action against MATIN; settings: dosage 320 g/ha
# Summary of the method: as §1
# [8] = test system: Polygonum convolvulus (POLCO); experiment: Pre-emergence herbicidal action against POLCO
# Summary of the method: as §1
# [9] = test system: Setaria viridis (SETVI); experiment: Pre-emergence herbicidal action against SETVI
# Summary of the method: as §1
# [10] = test system: Verconica persica (VERPE); experiment: Pre-emergence herbicidal action against VERPE
# Summary of the method: as §1
# [11] = test system: Viola tricolor (VIOTR); experiment: Pre-emergence herbicidal action against VIOTR
# Summary of the method: as §1
# [12] = test system: Oryza sativa (ORYSA); settings: pre-emergence, 80 g/ha, crop plant compatibility, in comparison to untreated controls
# Summary of the method: (§2)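 Scoring: visual, % of untreated control, about 3 weeks after a pre-emergence application to the soil surface. Application used WP or EC formulations diluted in water with 0.5% additive at 600 l/ha; dosage levels are marked by suffixes a, b and c.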
# [13] = test system: Zea mays (ZEAMX); settings: pre-emergence, 80 g/ha, crop plant compatibility, in comparison to untreated controls
# Summary of the method: as §2
# [14] = test system: Alopecurus myosuroides (ALOMY); experiment: Post-emergence herbicidal action against ALOMY; settings: visual rating about 3 weeks after treatment vs untreated controls (100% = plants have died, 0% = like control plants)
# Summary of the method: (§3)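 Post-emergence greenhouse spray, one-leaf stage, 600 l/ha water plus 0.5% additive; WP or EC formulations; application rates 320 g/ha or lower. Visual % damage vs untreated controls at ~3 weeks.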
# [15] = test system: Amaranthus retroflexus (AMARE); experiment: Post-emergence herbicidal action against AMARE
# Summary of the method: as §3
# [16] = test system: Echinochloa crus-galli (ECHCG); experiment: Post-emergence herbicidal action against ECHCG
# Summary of the method: as §3
# [17] = test system: Polygonum convolvulus (POLCO); experiment: Post-emergence herbicidal action against POLCO
# Summary of the method: as §3
# [18] = test system: Oryza sativa (ORYSA); settings: crop plant compatibility, effect in comparison to untreated controls
# Summary of the method: (§4)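 Percent effect on the crop was judged by eye against untreated controls, where 0% means like control and 100% means dead plants. Plants had been sprayed post-emergence at the one-leaf stage and then kept under optimum greenhouse conditions for about 3 weeks.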
# [19] = test system: Triticum aestivum (TRZAS); settings: crop plant compatibility, 80 g/ha, effect vs untreated controls
# Summary of the method: as §4
# [20] = test system: Avena fatua (AVEFA); experiment: Post-emergence herbicidal action against AVEFA; settings: visual rating about 3 weeks after treatment
# Summary of the method: as §3
# [21] = test system: Lolium rigidum (LOLRI); experiment: Post-emergence herbicidal action against LOLRI
# Summary of the method: as §3
# [22] = test system: Setaria viridis (SETVI); experiment: Post-emergence herbicidal action against SETVI
# Summary of the method: as §3
# [23] = test system: Verconica persica (VERPE); experiment: Post-emergence herbicidal action against VERPE
# Summary of the method: as §3
# [24] = test system: Viola tricolor (VIOTR); experiment: Post-emergence herbicidal action against VIOTR
# Summary of the method: as §3
# [25] = test system: Zea mays (ZEAMX); settings: crop plant compatibility, 80 g/ha, effect vs untreated controls
# Summary of the method: as §4
# [26] = test system: Pharbitis purpurea (PHBPU); experiment: Pre-emergence herbicidal action against PHBPU
# Summary of the method: as §1
# [27] = test system: Abutilon theophrasti (ABUTH); experiment: Post-emergence herbicidal action against ABUTH; settings: visual rating about 3 weeks after treatment vs untreated controls (100% = plants have died, 0% = like control plants)
# Summary of the method: as §3
# [28] = test system: Matricaria inodora (MATIN); experiment: Post-emergence herbicidal action against MATIN; settings: dosage 320 g/ha
# Summary of the method: as §3
# [29] = test system: Pharbitis purpurea (PHBPU); experiment: Post-emergence herbicidal action against PHBPU
# Summary of the method: as §3
# [30] = 80 g/ha, visual rating about 3 weeks after treatment vs untreated controls (100% = plants have died, 0% = like control plants)
# [31] = 320 g/ha, visual rating about 3 weeks after treatment
structure (smiles),measurement,setting,value
O=C(O)C1CCCN1C(=O)COc1nn(-c2ccccn2)c(-c2ccc(F)nc2)c1Br (stereo not drawn) [Example I-111],Pre-emergence action against ABUTH,[1],80%
same,Pre-emergence action against ALOMY,[2]; 320 g/ha,90%
same,Pre-emergence action against AMARE in %,[3]; 80 g/ha,90%
same,Pre-emergence action against AMARE in %,[3]; 320 g/ha,100%
same,Pre-emergence action against AVEFA in %,[4],80%
same,Pre-emergence action against ECHCG in %,[5]; dosage 320 g/ha,100%
same,Pre-emergence action against LOLRI in %,[6]; dosage 320 g/ha,100%
same,Pre-emergence action against MATIN in %,[7],80%
same,Pre-emergence action against POLCO in %,[8]; dosage 80 g/ha,80%
same,Pre-emergence action against POLCO in %,[8]; dosage 320 g/ha,100%
same,Pre-emergence action against SETVI in %,[9]; dosage 80 g/ha,90%
same,Pre-emergence action against SETVI in %,[9]; dosage 320 g/ha,100%
same,Pre-emergence action against VERPE in %,[10]; dosage 320 g/ha,90%
same,Pre-emergence action against VIOTR in %,"[11]; 320 g/ha, Viola tricolor",100%
same,Pre-emergence action against VIOTR in %,[11]; dosage 80 g/ha,80%
same,Pre-emergence action against ORYSA in %,[12],0%
same,Pre-emergence action against ZEAMX in %,[13],0%
same,Post-emergence action against ALOMY in %,[14]; 320 g/ha,100%
same,Post-emergence action against AMARE in %,[15]; [30],80%
same,Post-emergence action against AMARE in %,[15]; [31],90%
same,Post-emergence action against ECHCG in %,[16]; dosage 320 g/ha,90%
same,Post-emergence action against POLCO in %,[17]; dosage 320 g/ha,80%
same,Post-emergence action against ORYSA in %,[18]; 80 g/ha,0%
same,Post-emergence action against ORYSA in %,[18]; 320 g/ha,0%
same,Post-emergence action against TRZAS in %,[19],0%
O=C(O)COc1nn(-c2ncccc2C(F)(F)F)c(-c2ccc(F)nc2)c1Br [Example I-310],Pre-emergence action against ABUTH,[1],80%
same,Pre-emergence action against ALOMY,[2]; 320 g/ha,100%
same,Pre-emergence action against AMARE in %,[3]; 80 g/ha,80%
same,Pre-emergence action against AMARE in %,[3]; 320 g/ha,100%
same,Pre-emergence action against AVEFA in %,[4],90%
same,Pre-emergence action against LOLRI in %,[6]; dosage 320 g/ha,100%
same,Pre-emergence action against POLCO in %,[8]; dosage 320 g/ha,90%
same,Pre-emergence action against VIOTR in %,"[11]; 320 g/ha, Viola tricolor",100%
same,Pre-emergence action against VIOTR in %,[11]; dosage 80 g/ha,90%
same,Pre-emergence action against ORYSA in %,[12],0%
same,Pre-emergence action against ZEAMX in %,[13],0%
same,Post-emergence action against ALOMY in %,[14]; 320 g/ha,90%
same,Post-emergence action against AMARE in %,[15]; [30],80%
same,Post-emergence action against AMARE in %,[15]; [31],80%
same,Post-emergence action against AVEFA in %,[20]; 320 g/ha,100%
same,Post-emergence action against ECHCG in %,[16]; dosage 320 g/ha,90%
same,Post-emergence action against LOLRI in %,[21]; dosage 320 g/ha,90%
same,Post-emergence action against POLCO in %,[17]; dosage 80 g/ha,80%
same,Post-emergence action against POLCO in %,[17]; dosage 320 g/ha,80%
same,Post-emergence action against SETVI in %,[22]; dosage 320 g/ha,90%
same,Post-emergence action against VERPE in %,"[23]; 320 g/ha, VERPE",80%
same,Post-emergence action against VIOTR in %,[24]; 80 g/ha,80%
same,Post-emergence action against VIOTR in %,[24]; 320 g/ha,90%
same,Post-emergence action against ORYSA in %,[18]; 80 g/ha,10%
same,Post-emergence action against ORYSA in %,[18]; 320 g/ha,20%
same,Post-emergence action against ZEAMX in %,[25],0%
COCCOC(=O)COc1nn(-c2ccccn2)c(-c2ccc(F)nc2)c1Br [Example I-96],Pre-emergence action against ABUTH,[1],80%
same,Pre-emergence action against ALOMY,[2]; 80 g/ha,80%
same,Pre-emergence action against ALOMY,[2]; 320 g/ha,100%
same,Pre-emergence action against AMARE in %,[3]; 80 g/ha,90%
same,Pre-emergence action against AMARE in %,[3]; 320 g/ha,100%
same,Pre-emergence action against AVEFA in %,[4],90%
same,Pre-emergence action against ECHCG in %,[5]; dosage 80 g/ha,80%
same,Pre-emergence action against ECHCG in %,[5]; dosage 320 g/ha,100%
same,Pre-emergence action against LOLRI in %,[6]; dosage 80 g/ha,90%
same,Pre-emergence action against LOLRI in %,[6]; dosage 320 g/ha,100%
same,Pre-emergence action against MATIN in %,[7],100%
same,Pre-emergence action against PHBPU in %,[26]; dosage 80 g/ha,90%
same,Pre-emergence action against PHBPU in %,[26]; dosage 320 g/ha,90%
same,Pre-emergence action against POLCO in %,[8]; dosage 80 g/ha,90%
same,Pre-emergence action against POLCO in %,[8]; dosage 320 g/ha,90%
same,Pre-emergence action against SETVI in %,[9]; dosage 80 g/ha,100%
same,Pre-emergence action against SETVI in %,[9]; dosage 320 g/ha,100%
same,Pre-emergence action against VERPE in %,[10]; dosage 80 g/ha,90%
same,Pre-emergence action against VERPE in %,[10]; dosage 320 g/ha,90%
same,Pre-emergence action against VIOTR in %,"[11]; 320 g/ha, Viola tricolor",90%
same,Pre-emergence action against ORYSA in %,[12],20%
same,Pre-emergence action against ZEAMX in %,[13],0%
same,Post-emergence action against ABUTH in %,[27]; 80 g/ha,90%
same,Post-emergence action against ABUTH in %,[27]; 320 g/ha,90%
same,Post-emergence action against ALOMY in %,[14]; 80 g/ha,90%
same,Post-emergence action against ALOMY in %,[14]; 320 g/ha,90%
same,Post-emergence action against AMARE in %,[15]; [30],80%
same,Post-emergence action against AMARE in %,[15]; [31],80%
same,Post-emergence action against AVEFA in %,[20]; 80 g/ha,80%
same,Post-emergence action against AVEFA in %,[20]; 320 g/ha,90%
same,Post-emergence action against ECHCG in %,[16]; dosage 80 g/ha,90%
same,Post-emergence action against ECHCG in %,[16]; dosage 320 g/ha,90%
same,Post-emergence action against LOLRI in %,[21]; dosage 80 g/ha,90%
same,Post-emergence action against LOLRI in %,[21]; dosage 320 g/ha,90%
same,Post-emergence action against MATIN in %,[28],80%
same,Post-emergence action against PHBPU in %,[29]; dosage 80 g/ha,90%
same,Post-emergence action against PHBPU in %,[29]; dosage 320 g/ha,90%
same,Post-emergence action against POLCO in %,[17]; dosage 80 g/ha,80%
same,Post-emergence action against POLCO in %,[17]; dosage 320 g/ha,80%
same,Post-emergence action against SETVI in %,[22]; dosage 80 g/ha,90%
same,Post-emergence action against SETVI in %,[22]; dosage 320 g/ha,90%
same,Post-emergence action against VERPE in %,"[23]; 320 g/ha, VERPE",90%
same,Post-emergence action against VERPE in %,[23]; dosage 80 g/ha,80%
same,Post-emergence action against VIOTR in %,[24]; 80 g/ha,90%
same,Post-emergence action against VIOTR in %,[24]; 320 g/ha,90%

# Reference: patent US20240041042A1, “1-(PYRIDYL)-5-AZINYLPYRAZOLE DERIVATIVES, AND THEIR USE FOR CONTROL OF UNDESIRED PLANT GROWTH” (Bayer Aktiengesellschaft, priority 2020, published 2024)
